Test results published in ChEMBL document CHEMBL4219030, “Progress in the discovery of small molecule modulators of the Cys-loop superfamily receptors” (Bioorg Med Chem Lett, 2017).

What was measured:
[1] = target: T1, Glycine receptor subunit alpha-1 (Homo sapiens, UniProt P23415); assay: Positive allosteric modulation of human glycine alpha1 receptor expressed in HEK293T cells assessed as glycine-induced increase incurrent response after 18 to 24 hrs by membrane potential blue dye based FLIPR assay; type: cell-based
T1 sequence (P23415 whole entry): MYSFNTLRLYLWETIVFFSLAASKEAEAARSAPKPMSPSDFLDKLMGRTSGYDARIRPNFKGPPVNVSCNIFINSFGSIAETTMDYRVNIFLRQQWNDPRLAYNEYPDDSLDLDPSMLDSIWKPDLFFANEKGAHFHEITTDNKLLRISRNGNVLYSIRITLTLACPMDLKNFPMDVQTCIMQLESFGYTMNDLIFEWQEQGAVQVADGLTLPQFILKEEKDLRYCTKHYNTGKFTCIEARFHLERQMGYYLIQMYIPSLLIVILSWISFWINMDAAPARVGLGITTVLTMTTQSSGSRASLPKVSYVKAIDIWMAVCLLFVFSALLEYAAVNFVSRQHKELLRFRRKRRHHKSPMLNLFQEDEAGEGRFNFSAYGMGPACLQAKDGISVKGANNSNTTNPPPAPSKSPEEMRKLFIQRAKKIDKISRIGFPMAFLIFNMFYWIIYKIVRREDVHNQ

[2] = target: Glycine receptor (alpha-1/beta) (Homo sapiens, UniProt P23415+P48167); assay: Positive allosteric modulation of human glycine alpha1beta receptor expressed in HEK293T cells assessed as glycine-induced increase in current response after 18 to 24 hrs by membrane potential blue dye based FLIPR assay; type: cell-based
[3] = target: T2, Glycine receptor alpha-3/beta (Homo sapiens, UniProt O75311+P48167); assay: Positive allosteric modulation of human glycine alpha3beta receptor expressed in HEK293T cells assessed as glycine-induced increase in current response after 18 to 24 hrs by membrane potential blue dye based FLIPR assay; type: cell-based
[4] = target: T2, Glycine receptor alpha-3/beta; assay: Positive allosteric modulation of human glycine alpha3beta receptor expressed in HEK293T cells assessed as potentiation of glycine-induced increase in current response after 18 to 24 hrs by membrane potential blue dye based FLIPR assay relative to glycine; type: cell-based
[5] = target: T3, Neuronal acetylcholine receptor; alpha4/beta2 (Homo sapiens, UniProt P17787+P43681); assay: Agonist activity at alpha4beta2 nAChR (unknown origin); type: protein-complex assay
[6] = target: T3, Neuronal acetylcholine receptor; alpha4/beta2; assay: Inhibition of alpha4beta2 nAChR (unknown origin); type: protein-complex assay
[7] = target: T4, 5-hydroxytryptamine receptor 3A (Homo sapiens, UniProt P46098); assay: Agonist activity at 5-HT3 receptor (unknown origin)
T4 sequence (P46098 whole entry): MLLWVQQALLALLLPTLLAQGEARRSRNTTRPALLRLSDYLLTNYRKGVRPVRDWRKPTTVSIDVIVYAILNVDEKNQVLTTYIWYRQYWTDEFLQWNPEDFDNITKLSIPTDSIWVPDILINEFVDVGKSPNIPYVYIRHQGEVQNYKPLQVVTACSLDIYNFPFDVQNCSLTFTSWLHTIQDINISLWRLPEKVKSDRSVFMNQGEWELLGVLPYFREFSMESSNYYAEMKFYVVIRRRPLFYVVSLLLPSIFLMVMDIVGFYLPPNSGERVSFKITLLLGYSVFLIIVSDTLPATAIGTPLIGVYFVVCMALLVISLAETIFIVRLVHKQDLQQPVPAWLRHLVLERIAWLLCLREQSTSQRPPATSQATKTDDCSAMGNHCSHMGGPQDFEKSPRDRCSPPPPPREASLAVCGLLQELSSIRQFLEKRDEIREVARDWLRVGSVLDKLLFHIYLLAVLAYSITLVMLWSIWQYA

[8] = target: T4, 5-hydroxytryptamine receptor 3A; assay: Inhibition of 5-HT3 receptor (unknown origin)
[9] = target: Gamma-aminobutyric acid receptor subunit alpha-1/beta-2/gamma-2 (Mus musculus, UniProt P22723+P62812+P63137); assay: Positive allosteric modulation of C57BL/6 mouse GABAA receptor alpha1beta2gamma2 assessed as increase in GABA-induced current response at -60 mV holding potential by whole cell patch-clamp method relative to GABA; type: protein-complex assay
[10] = target: T5, Gamma-aminobutyric acid receptor subunit alpha-1/beta-3/gamma-2 (Mus musculus, UniProt P22723+P62812+P63080); assay: Positive allosteric modulation of C57BL/6 mouse GABAA receptor alpha1beta3gamma2 assessed as increase in GABA-induced current response at -60 mV holding potential by whole cell patch-clamp method relative to GABA; type: protein-complex assay
[11] = target: T5, Gamma-aminobutyric acid receptor subunit alpha-1/beta-3/gamma-2; assay: Inhibition of C57BL/6 mouse GABAA receptor alpha1beta3gamma2; type: protein-complex assay

T3 sequence (P17787 whole entry): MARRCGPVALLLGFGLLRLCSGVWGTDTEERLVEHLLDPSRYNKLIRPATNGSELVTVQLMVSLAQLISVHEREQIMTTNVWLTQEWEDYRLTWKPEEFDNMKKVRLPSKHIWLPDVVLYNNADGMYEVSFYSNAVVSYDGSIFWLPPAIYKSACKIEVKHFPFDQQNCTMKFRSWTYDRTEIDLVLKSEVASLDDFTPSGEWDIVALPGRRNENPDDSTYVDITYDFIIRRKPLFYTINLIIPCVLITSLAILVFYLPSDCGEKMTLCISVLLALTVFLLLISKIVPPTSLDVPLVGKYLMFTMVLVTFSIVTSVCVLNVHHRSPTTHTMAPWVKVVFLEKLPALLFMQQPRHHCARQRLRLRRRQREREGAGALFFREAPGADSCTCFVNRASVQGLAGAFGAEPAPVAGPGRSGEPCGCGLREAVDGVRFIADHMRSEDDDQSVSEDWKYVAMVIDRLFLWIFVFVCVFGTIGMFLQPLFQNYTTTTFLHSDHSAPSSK
T3 sequence (P43681 whole entry): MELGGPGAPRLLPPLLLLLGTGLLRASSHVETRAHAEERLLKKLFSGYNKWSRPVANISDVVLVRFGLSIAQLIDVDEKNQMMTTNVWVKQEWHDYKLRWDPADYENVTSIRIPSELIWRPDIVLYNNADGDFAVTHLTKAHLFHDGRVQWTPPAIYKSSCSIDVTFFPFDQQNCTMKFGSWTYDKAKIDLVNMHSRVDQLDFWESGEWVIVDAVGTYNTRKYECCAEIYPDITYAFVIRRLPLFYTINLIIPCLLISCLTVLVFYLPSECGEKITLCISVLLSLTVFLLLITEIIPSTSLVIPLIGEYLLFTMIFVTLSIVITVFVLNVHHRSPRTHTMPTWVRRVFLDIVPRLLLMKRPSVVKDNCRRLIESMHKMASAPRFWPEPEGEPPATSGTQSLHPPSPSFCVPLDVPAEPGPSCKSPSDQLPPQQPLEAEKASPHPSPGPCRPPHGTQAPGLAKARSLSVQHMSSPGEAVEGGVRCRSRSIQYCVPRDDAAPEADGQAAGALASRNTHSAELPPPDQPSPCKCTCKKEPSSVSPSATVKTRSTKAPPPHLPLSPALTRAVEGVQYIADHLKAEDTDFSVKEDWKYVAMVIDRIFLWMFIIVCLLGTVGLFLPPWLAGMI
T5 sequence (P22723 whole entry): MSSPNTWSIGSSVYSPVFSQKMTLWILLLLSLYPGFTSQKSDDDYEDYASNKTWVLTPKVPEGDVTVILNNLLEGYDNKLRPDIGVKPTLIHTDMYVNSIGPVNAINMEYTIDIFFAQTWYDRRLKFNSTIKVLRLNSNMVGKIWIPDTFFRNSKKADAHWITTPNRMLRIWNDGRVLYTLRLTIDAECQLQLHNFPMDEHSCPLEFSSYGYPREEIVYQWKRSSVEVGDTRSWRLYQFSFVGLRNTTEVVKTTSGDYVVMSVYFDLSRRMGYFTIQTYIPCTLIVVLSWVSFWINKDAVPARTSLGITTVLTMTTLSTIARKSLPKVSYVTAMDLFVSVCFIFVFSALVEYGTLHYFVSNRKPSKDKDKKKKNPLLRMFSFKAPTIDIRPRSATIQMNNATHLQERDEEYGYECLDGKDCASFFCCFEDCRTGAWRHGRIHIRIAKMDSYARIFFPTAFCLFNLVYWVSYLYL
T5 sequence (P62812 whole entry): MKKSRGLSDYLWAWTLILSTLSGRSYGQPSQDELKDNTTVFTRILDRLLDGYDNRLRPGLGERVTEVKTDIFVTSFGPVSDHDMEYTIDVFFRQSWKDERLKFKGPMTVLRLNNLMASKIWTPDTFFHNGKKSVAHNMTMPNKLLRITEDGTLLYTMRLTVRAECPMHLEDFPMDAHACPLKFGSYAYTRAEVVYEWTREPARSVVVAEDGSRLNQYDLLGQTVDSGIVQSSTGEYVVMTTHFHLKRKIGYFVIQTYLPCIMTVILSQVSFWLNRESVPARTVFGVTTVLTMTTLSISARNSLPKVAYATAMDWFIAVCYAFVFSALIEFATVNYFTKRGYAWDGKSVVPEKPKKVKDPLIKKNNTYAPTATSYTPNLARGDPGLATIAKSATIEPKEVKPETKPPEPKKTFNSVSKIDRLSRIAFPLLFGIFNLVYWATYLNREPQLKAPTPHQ
T5 sequence (P63080 whole entry): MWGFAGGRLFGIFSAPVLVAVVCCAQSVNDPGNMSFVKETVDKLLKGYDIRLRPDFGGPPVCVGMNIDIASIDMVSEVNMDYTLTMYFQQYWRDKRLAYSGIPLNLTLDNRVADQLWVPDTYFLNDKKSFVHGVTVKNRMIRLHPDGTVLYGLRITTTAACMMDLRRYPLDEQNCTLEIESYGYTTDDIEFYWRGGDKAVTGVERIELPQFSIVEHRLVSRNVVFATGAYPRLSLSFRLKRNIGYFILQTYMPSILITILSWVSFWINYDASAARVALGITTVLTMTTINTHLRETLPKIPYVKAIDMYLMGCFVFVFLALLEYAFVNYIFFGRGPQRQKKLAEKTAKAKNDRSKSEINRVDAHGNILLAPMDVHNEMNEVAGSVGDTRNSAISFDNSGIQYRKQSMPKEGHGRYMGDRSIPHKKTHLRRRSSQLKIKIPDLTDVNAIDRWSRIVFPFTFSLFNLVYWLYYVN
Chain of Glycine receptor (alpha-1/beta) (P48167 whole entry, one chain of several): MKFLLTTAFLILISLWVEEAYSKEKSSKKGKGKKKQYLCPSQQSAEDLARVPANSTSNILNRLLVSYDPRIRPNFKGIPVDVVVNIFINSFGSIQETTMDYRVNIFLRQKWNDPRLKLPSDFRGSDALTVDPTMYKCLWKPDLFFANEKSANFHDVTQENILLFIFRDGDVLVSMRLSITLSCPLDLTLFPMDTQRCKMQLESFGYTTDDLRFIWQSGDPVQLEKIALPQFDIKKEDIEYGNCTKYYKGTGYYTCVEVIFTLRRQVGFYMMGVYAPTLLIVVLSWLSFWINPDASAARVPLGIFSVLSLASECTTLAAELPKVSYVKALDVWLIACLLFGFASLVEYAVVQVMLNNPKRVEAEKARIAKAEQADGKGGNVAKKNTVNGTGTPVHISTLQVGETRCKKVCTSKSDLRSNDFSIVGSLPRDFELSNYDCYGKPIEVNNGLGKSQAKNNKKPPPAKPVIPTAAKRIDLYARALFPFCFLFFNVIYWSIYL
T2 sequence (O75311 whole entry): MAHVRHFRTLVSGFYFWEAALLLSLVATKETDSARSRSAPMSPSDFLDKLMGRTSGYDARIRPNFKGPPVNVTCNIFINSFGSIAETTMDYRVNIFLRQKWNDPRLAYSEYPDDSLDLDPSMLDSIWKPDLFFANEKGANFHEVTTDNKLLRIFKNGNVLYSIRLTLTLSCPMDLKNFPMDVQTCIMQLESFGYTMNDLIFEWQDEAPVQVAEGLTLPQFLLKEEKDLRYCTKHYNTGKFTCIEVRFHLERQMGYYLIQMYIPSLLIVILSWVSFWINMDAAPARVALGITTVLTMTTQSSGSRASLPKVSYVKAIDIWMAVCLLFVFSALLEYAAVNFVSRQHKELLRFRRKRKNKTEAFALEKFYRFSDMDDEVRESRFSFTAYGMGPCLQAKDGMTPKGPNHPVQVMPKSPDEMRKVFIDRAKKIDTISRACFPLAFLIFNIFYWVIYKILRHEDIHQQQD
T2 sequence (P48167 whole entry): as the sequence (P48167 whole entry, one chain of several) above
Chain of Gamma-aminobutyric acid receptor subunit alpha-1/beta-2/gamma-2 (P22723 whole entry): as the sequence (P22723 whole entry) above
Chain of Gamma-aminobutyric acid receptor subunit alpha-1/beta-2/gamma-2 (P62812 whole entry): as the sequence (P62812 whole entry) above
Chain of Gamma-aminobutyric acid receptor subunit alpha-1/beta-2/gamma-2 (P63137 whole entry): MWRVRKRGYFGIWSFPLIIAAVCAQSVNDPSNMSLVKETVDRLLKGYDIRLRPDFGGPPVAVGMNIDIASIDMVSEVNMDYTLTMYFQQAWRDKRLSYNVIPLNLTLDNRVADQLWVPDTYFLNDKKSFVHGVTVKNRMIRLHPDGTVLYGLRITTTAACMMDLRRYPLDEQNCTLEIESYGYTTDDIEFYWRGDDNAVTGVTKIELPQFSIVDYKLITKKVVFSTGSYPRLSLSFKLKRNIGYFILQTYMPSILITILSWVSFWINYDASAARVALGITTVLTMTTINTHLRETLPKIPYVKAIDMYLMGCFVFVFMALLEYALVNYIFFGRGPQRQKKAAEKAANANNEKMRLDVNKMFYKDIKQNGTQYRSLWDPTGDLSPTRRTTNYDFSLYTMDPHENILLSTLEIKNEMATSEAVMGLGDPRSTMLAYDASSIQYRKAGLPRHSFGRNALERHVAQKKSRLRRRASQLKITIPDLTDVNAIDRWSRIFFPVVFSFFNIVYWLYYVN

SMILES: C[C@H]1[C@H]2C(=O)N(C)c3ccncc3[C@H]2CN1S(=O)(=O)c1ccc2c(c1)OCO2
- EC50 [1]: 0.032 µM
- EC50 [2]: 0.016 µM
- EC50 [3]: 0.066 µM
- fold change (FC) [4]: 11
- EC50 [5]: > 25 µM
- IC50 [6]: > 25 µM
- EC50 [7]: > 25 µM
- IC50 [8]: > 30 µM
- EC50 [9]: > 50 µM
- EC50 [10]: > 30 µM
- IC50 [11]: > 30 µM
